According to PubChem BioAssay AID1996:
Converted amounts (≈) assume the structure as drawn.

Settings: buffer; pH 7.4; 200.0 µM
`O=[N+]([O-])c1cccc(S(=O)(=O)NCc2ccncc2)c1` showed a solubility kinetic greater than 44 µg/mL.
Molecule `Cc1ccc(NC(=O)c2oc3ccccc3c2COC(C)C)cc1S(=O)(=O)N1CCOCC1` has a solubility kinetic of 3.6 µg/mL (≈ 7.62 µM).
In the case of `N#Cc1cc(N2CCOCC2)nc2ccccc12`, the solubility kinetic is reported as 15.3 µg/mL (≈ 63.9 µM).
Work on `CC1CCC(NC(=O)CSc2nncn2C)CC1` (stereo not given) yielded a solubility kinetic greater than 40.3 µg/mL.
Molecule `O=C(CCCC(=O)c1ccccc1)NCCc1ccccc1F` has a solubility kinetic of 44.1 µg/mL (≈ 141 µM).
Molecule `COC(=O)CNC(=O)c1cc(-c2ccncc2)nc2ccccc12` has a solubility kinetic greater than 48.2 µg/mL.
`O=C(O)Cn1nc(-c2ccccc2)cc1-c1ccccc1` showed a solubility kinetic greater than 41.7 µg/mL.
For `CC(NC(=O)COc1cccnc1[N+](=O)[O-])c1ccc(F)cc1` (stereo not given), the solubility kinetic was greater than 47.9 µg/mL.
Work on `CC(=O)C(c1ccccc1)C(c1ccccc1)C(C)[N+](=O)[O-]` (stereo not given) yielded a solubility kinetic of less than 0.6 µg/mL.
With `O=C(Cn1nc(Cl)nc1Cl)c1ccccc1` the solubility kinetic was greater than 38.4 µg/mL.
Work on `O=C(Nc1ccc(-c2cnco2)cc1)c1ccccc1` yielded a solubility kinetic of less than 0.3 µg/mL.
Molecule `COc1cc(OC)cc(C(=O)Nc2ccc(N(C)C)c3ccccc23)c1` has a solubility kinetic of less than 0.4 µg/mL.
`Cc1c(Cl)cccc1NC(=O)Nc1cccnc1` gave a solubility kinetic of 34.9 µg/mL (≈ 133 µM).
Work on `Cc1ccc(C(=O)NC(=S)NCc2cccnc2)cc1C` yielded a solubility kinetic of 26.9 µg/mL (≈ 89.8 µM).
Molecule `CCCCNC(=O)CCC(=O)N1CCN(C(c2ccccc2)c2ccccc2)CC1.Cl` has a solubility kinetic greater than 66.6 µg/mL.
`COCCNC(=O)Cn1cc(/C=C(\C#N)C(=O)NC2CC2)c2ccccc21` gave a solubility kinetic greater than 55 µg/mL.
With `CCC(C(=O)OC(C)C(=O)Nc1ccc(Cl)cn1)c1ccccc1` (stereo not given) the solubility kinetic was 16.9 µg/mL (≈ 48.7 µM).
Molecule `CCN(CC)P(=O)(c1ccccc1)c1c(C)nc2ccccn12` (stereo not given) has a solubility kinetic greater than 49.1 µg/mL.
In the case of `CCCOc1ccc(C2NC(=O)CCC2[N+](=O)[O-])cc1` (stereo not given), the solubility kinetic is reported as greater than 41.7 µg/mL.
With `COc1ccc(-n2ccnc2SCC(=O)NO)cc1` the solubility kinetic was greater than 41.9 µg/mL.
In the case of `Cc1cccc(N2C(=O)CSC23CCCCC3)c1`, the solubility kinetic is reported as 20.3 µg/mL (≈ 77.7 µM).
For `O=C(c1ccc(-c2ccccc2)cc1)N1CCN(c2ccc(F)cc2)CC1`, the solubility kinetic was 2.4 µg/mL (≈ 6.66 µM).
For `COc1ccc(N)cc1NC(=O)CN1CCCC1`, the solubility kinetic was greater than 37.4 µg/mL.
`Cc1cccc(OCC(=O)NCCNC(=O)c2ccco2)c1` showed a solubility kinetic of 45 µg/mL (≈ 149 µM).
Molecule `Cc1ccnc(N/C=C/C(=O)c2ccc(Br)cc2)c1` has a solubility kinetic of less than 0.3 µg/mL.
In the case of `Fc1ccccc1-c1nc(NCc2ccccc2)c2ccccc2n1`, the solubility kinetic is reported as 3.1 µg/mL (≈ 9.41 µM).
For `Cc1ccc(N2CCN(CC(O)COc3ccccc3)CC2)cc1` (stereo not given), the solubility kinetic was 30.1 µg/mL (≈ 92.2 µM).
`COc1ccc(N2CCN(CC(=O)c3ccc(Cl)cc3)CC2)cc1` gave a solubility kinetic of 45.7 µg/mL (≈ 133 µM).
For `COc1cccc(CN2CCN(c3ccc(F)cc3)C2=O)c1`, the solubility kinetic was 29.9 µg/mL (≈ 99.6 µM).
In the case of `Cc1c(C(=O)NCCSCc2ccccc2)cccc1[N+](=O)[O-]`, the solubility kinetic is reported as 46.6 µg/mL (≈ 141 µM).
In the case of `O=C(O)Cn1c(-c2ccccc2)cc2ccccc21`, the solubility kinetic is reported as 25.3 µg/mL (≈ 101 µM).
In the case of `COc1ccccc1OCCN(C#N)c1nc(N(C)C)nc(N(C)C)n1`, the solubility kinetic is reported as 6.3 µg/mL (≈ 17.6 µM).
For `COc1cccc(NC(=O)COC(=O)CC2CC3CCC2C3)c1` (stereo not given), the solubility kinetic was 24.1 µg/mL (≈ 75.9 µM).
With `O=C(CC1NCCN(Cc2ccccc2)C1=O)Nc1ccccc1` (stereo not given) the solubility kinetic was 41.5 µg/mL (≈ 128 µM).
Molecule `O=C(O)CC1(CC(=O)Nc2ccc3c(c2)C(=O)OC3)CCCCC1` has a solubility kinetic greater than 49.7 µg/mL.
For `COC(=O)c1ccc(NC(=O)CCC(=O)c2ccc(F)cc2)cc1`, the solubility kinetic was less than 0.7 µg/mL.
For `Nc1ccc(NC(=O)CCN2CCOCC2)cc1`, the solubility kinetic was 34.8 µg/mL (≈ 140 µM).
Molecule `CCC(C)[C@H](NC(=O)NCc1ccco1)C(=O)OC` (stereo not given in full) has a solubility kinetic greater than 40.2 µg/mL.
`CN(Cc1ccc2c(c1)OCCO2)C(=O)CSc1ncnc2sccc12` showed a solubility kinetic of 41.8 µg/mL (≈ 108 µM).
`Cc1cccc(C(=O)OCC(=O)NCC2CCCO2)c1O` (stereo not given) gave a solubility kinetic greater than 44 µg/mL.
For `Cn1c(=O)c2ccccc2n(CC(=O)NC2CCCC2)c1=O`, the solubility kinetic was 40.2 µg/mL (≈ 133 µM).
In the case of `CNC(=O)Cc1csc2ccc(C)cc12`, the solubility kinetic is reported as 30.4 µg/mL (≈ 139 µM).
Work on `Cc1cc(=O)[nH]c(N2CCCNCC2)n1` yielded a solubility kinetic greater than 31.2 µg/mL.
`O=c1c2cccnc2nc2n1CCCCC2` gave a solubility kinetic greater than 32.3 µg/mL.
Molecule `CC(=O)Nc1cccc(OCCCNC(=O)C2CCC2)c1` has a solubility kinetic greater than 43.6 µg/mL.
Molecule `O=C1CN(C(=O)CNC(=O)c2ccc(Cl)cc2Cl)CCN1` has a solubility kinetic of 47.4 µg/mL (≈ 144 µM).
Molecule `O=C(CCc1nc(-c2ccc(Cl)cc2)no1)NC1CCCC1` has a solubility kinetic of 6.4 µg/mL (≈ 20 µM).
In the case of `Cl.O=S(=O)(CCC1CCCCN1)c1ccccc1` (stereo not given), the solubility kinetic is reported as greater than 43.5 µg/mL.
With `O=C(NCC(c1ccco1)N1CCOCC1)c1ccc([N+](=O)[O-])cc1` (stereo not given) the solubility kinetic was greater than 51.8 µg/mL.
`CCOC(=O)C1CCN(CC(O)COCc2ccc(Cl)cc2)CC1.Cl` (stereo not given) gave a solubility kinetic of 57.5 µg/mL.
With `Cc1cc(S(=O)(=O)N2CCc3ccccc3C2)ccc1F` the solubility kinetic was less than 0.7 µg/mL.
Molecule `Cn1c(=O)c2cc3ccc(Cl)cc3nc2n(C)c1=O` has a solubility kinetic of 0.4 µg/mL (≈ 1.45 µM).
`O=C(COc1ccc2ccccc2c1)Nc1ccccc1C(=O)O` showed a solubility kinetic greater than 48.2 µg/mL.
`COCCNC(=O)/C(C#N)=C/C=C/c1ccccc1` gave a solubility kinetic of 28.9 µg/mL (≈ 113 µM).
`O=Cc1cn(Cc2ccc(Br)cc2)c2ccccc12` gave a solubility kinetic of less than 0.7 µg/mL.
In the case of `CC(NC(=O)N1CCOCC1)c1ccccc1` (stereo not given), the solubility kinetic is reported as greater than 35.1 µg/mL.
In the case of `COc1cccc(OC)c1OC(=O)c1cnccn1`, the solubility kinetic is reported as less than 0.3 µg/mL.
Molecule `FC(F)(F)c1ccc(NC2=NCCCS2)cc1` has a solubility kinetic of 15.6 µg/mL (≈ 59.9 µM).
In the case of `COc1ccc(N(C=O)C(C(=O)Nc2c(C)cccc2C)c2ccccc2)cc1` (stereo not given), the solubility kinetic is reported as 1.6 µg/mL (≈ 4.12 µM).
`COc1ccc(OCC(=O)N2CCCC2=O)c([N+](=O)[O-])c1` showed a solubility kinetic of 42.8 µg/mL (≈ 145 µM).
